± gives the uncertainty stated by the source.
Test: xn = mol fraction of the nth substance listed

c1ccccc1 + Cc1ccccc1
Settings	viscosity [mPa·s]
293.15 K, 100 kPa, x2 = 0.25	0.631 ± 0.019
293.15 K, 101 kPa, x1 = 0.28	0.584 ± 0.016
293.15 K, 101 kPa, x1 = 0.54	0.597 ± 0.016
293.15 K, 101 kPa, x1 = 0.78	0.607 ± 0.016
293.15 K, 101.33 kPa, x1 = 0.1688	0.575 ± 0.0052
293.15 K, 101.33 kPa, x1 = 0.4383	0.592 ± 0.0053
293.15 K, 101.33 kPa, x1 = 0.5149	0.599 ± 0.0054
293.15 K, 101.33 kPa, x1 = 0.6583	0.606 ± 0.0055
293.15 K, 101.33 kPa, x1 = 0.7819	0.617 ± 0.0055
294.15 K, 100 kPa, x2 = 0.75	0.621 ± 0.019
294.65 K, 101.33 kPa, x2 = 0.83	0.6216 ± 0.0072
294.75 K, 101.33 kPa, x2 = 0.202	0.6571 ± 0.0077
294.95 K, 101.33 kPa, x2 = 0.62	0.6245 ± 0.0073
295.55 K, 101.33 kPa, x2 = 0.508	0.6234 ± 0.0072
295.65 K, 101.33 kPa, x2 = 0.107	0.6473 ± 0.0075
295.85 K, 101.33 kPa, x2 = 0.272	0.6379 ± 0.0073
296.05 K, 101.33 kPa, x2 = 0.386	0.6282 ± 0.0073
297.35 K, 101.33 kPa, x2 = 0.719	0.6066 ± 0.0072
298.15 K, 101 kPa, x1 = 0.1	0.5546 ± 0.0071
298.15 K, 101 kPa, x1 = 0.1153	0.556 ± 0.0048
298.15 K, 101 kPa, x1 = 0.1272	0.555 ± 0.007
298.15 K, 101 kPa, x1 = 0.2	0.5566 ± 0.0071
298.15 K, 101 kPa, x1 = 0.2022	0.5584 ± 0.0049
298.15 K, 101 kPa, x1 = 0.28	0.556 ± 0.015
298.15 K, 101 kPa, x1 = 0.2965	0.5613 ± 0.0049
298.15 K, 101 kPa, x1 = 0.3	0.5595 ± 0.0072
298.15 K, 101 kPa, x1 = 0.3423	0.558 ± 0.007
298.15 K, 101 kPa, x1 = 0.4	0.5632 ± 0.0072
298.15 K, 101 kPa, x1 = 0.4076	0.5651 ± 0.0049
298.15 K, 101 kPa, x1 = 0.5	0.5678 ± 0.0073
298.15 K, 101 kPa, x1 = 0.54	0.566 ± 0.015
298.15 K, 101 kPa, x1 = 0.5405	0.5703 ± 0.005
298.15 K, 101 kPa, x1 = 0.6	0.5732 ± 0.0073
298.15 K, 101 kPa, x1 = 0.7	0.5794 ± 0.0074
298.15 K, 101 kPa, x1 = 0.7024	0.579 ± 0.008
298.15 K, 101 kPa, x1 = 0.7237	0.5802 ± 0.005
298.15 K, 101 kPa, x1 = 0.78	0.574 ± 0.015
298.15 K, 101 kPa, x1 = 0.8	0.5864 ± 0.0075
298.15 K, 101 kPa, x1 = 0.8593	0.5888 ± 0.0051
298.15 K, 101 kPa, x1 = 0.9	0.594 ± 0.0076
298.15 K, 101 kPa, x1 = 0.9275	0.594 ± 0.008
298.15 K, 101 kPa, x1 = 0.9637	0.5968 ± 0.0052
298.15 K, 101.33 kPa, x1 = 0.0655	0.5543 ± 0.0056
298.15 K, 101.33 kPa, x1 = 0.0991	0.5554 ± 0.0056
298.15 K, 101.33 kPa, x1 = 0.2566	0.5591 ± 0.0056
298.15 K, 101.33 kPa, x1 = 0.3969	0.5652 ± 0.0057
298.15 K, 101.33 kPa, x1 = 0.5481	0.572 ± 0.0058
298.15 K, 101.33 kPa, x1 = 0.6618	0.5783 ± 0.0058
298.15 K, 101.33 kPa, x1 = 0.8029	0.5874 ± 0.0059
298.15 K, 101.33 kPa, x1 = 0.9087	0.5951 ± 0.0059
303.15 K, 101 kPa, x1 = 0.28	0.525 ± 0.014
303.15 K, 101 kPa, x1 = 0.54	0.531 ± 0.014
303.15 K, 101 kPa, x1 = 0.78	0.539 ± 0.014
303.15 K, 101.3 kPa, x1 = 0.0529	0.5206 ± 0.0046
303.15 K, 101.3 kPa, x1 = 0.1185	0.522 ± 0.0047
303.15 K, 101.3 kPa, x1 = 0.2615	0.5257 ± 0.0047
303.15 K, 101.3 kPa, x1 = 0.3482	0.5277 ± 0.0047
303.15 K, 101.3 kPa, x1 = 0.4486	0.5312 ± 0.0047
303.15 K, 101.3 kPa, x1 = 0.5963	0.5372 ± 0.0048
303.15 K, 101.3 kPa, x1 = 0.7138	0.5426 ± 0.0048
303.15 K, 101.3 kPa, x1 = 0.8413	0.5482 ± 0.0048
303.15 K, 101.3 kPa, x1 = 0.9558	0.5538 ± 0.0049
303.15 K, 101.33 kPa, x1 = 0.1688	0.509 ± 0.0047
303.15 K, 101.33 kPa, x1 = 0.4383	0.523 ± 0.0048
303.15 K, 101.33 kPa, x1 = 0.5149	0.526 ± 0.0049
303.15 K, 101.33 kPa, x1 = 0.6583	0.529 ± 0.0049
303.15 K, 101.33 kPa, x1 = 0.7819	0.54 ± 0.005
303.15 K, 101.33 kPa, x2 = 0.1	0.587 ± 0.016
303.15 K, 101.33 kPa, x2 = 0.2	0.576 ± 0.016
303.15 K, 101.33 kPa, x2 = 0.402	0.563 ± 0.016
303.15 K, 101.33 kPa, x2 = 0.6	0.551 ± 0.016
303.15 K, 101.33 kPa, x2 = 0.8	0.539 ± 0.015
303.15 K, 101.33 kPa, x2 = 0.899	0.53 ± 0.015
305.15 K, 101.33 kPa, x2 = 0.83	0.5517 ± 0.0064
305.35 K, 101.33 kPa, x2 = 0.508	0.5535 ± 0.0064
305.35 K, 101.33 kPa, x2 = 0.719	0.554 ± 0.0064
305.55 K, 101.33 kPa, x2 = 0.107	0.5782 ± 0.0067
305.55 K, 101.33 kPa, x2 = 0.62	0.5525 ± 0.0064
305.65 K, 101.33 kPa, x2 = 0.202	0.57 ± 0.0066
305.75 K, 101.33 kPa, x2 = 0.386	0.5579 ± 0.0065
308.15 K, 101 kPa, x1 = 0.54	0.502 ± 0.013
308.15 K, 101 kPa, x1 = 0.78	0.506 ± 0.014
308.15 K, 101.33 kPa, x2 = 0.1	0.564 ± 0.016
308.15 K, 101.33 kPa, x2 = 0.2	0.556 ± 0.016
308.15 K, 101.33 kPa, x2 = 0.402	0.541 ± 0.015
308.15 K, 101.33 kPa, x2 = 0.6	0.532 ± 0.015
308.15 K, 101.33 kPa, x2 = 0.8	0.518 ± 0.015
308.15 K, 101.33 kPa, x2 = 0.899	0.507 ± 0.015
312.85 K, 101.33 kPa, x2 = 0.107	0.5215 ± 0.006
312.95 K, 101.33 kPa, x2 = 0.202	0.5201 ± 0.006
312.95 K, 101.33 kPa, x2 = 0.272	0.5187 ± 0.006
313.05 K, 101.33 kPa, x2 = 0.719	0.5077 ± 0.0059
313.15 K, 101 kPa, x1 = 0.28	0.472 ± 0.013
313.15 K, 101 kPa, x1 = 0.54	0.476 ± 0.013
313.15 K, 101 kPa, x1 = 0.78	0.48 ± 0.013
313.15 K, 101.33 kPa, x1 = 0.1688	0.456 ± 0.0043
313.15 K, 101.33 kPa, x1 = 0.4383	0.463 ± 0.0044
313.15 K, 101.33 kPa, x1 = 0.6583	0.471 ± 0.0044
313.15 K, 101.33 kPa, x1 = 0.7819	0.479 ± 0.0045
313.15 K, 101.33 kPa, x2 = 0.1	0.55 ± 0.016
313.15 K, 101.33 kPa, x2 = 0.2	0.529 ± 0.015
313.15 K, 101.33 kPa, x2 = 0.402	0.517 ± 0.015
313.15 K, 101.33 kPa, x2 = 0.6	0.505 ± 0.015
313.15 K, 101.33 kPa, x2 = 0.8	0.491 ± 0.014
313.15 K, 101.33 kPa, x2 = 0.899	0.483 ± 0.014
313.25 K, 101.33 kPa, x2 = 0.386	0.51 ± 0.0059
313.35 K, 101.33 kPa, x2 = 0.508	0.5064 ± 0.0058
313.45 K, 101.33 kPa, x2 = 0.62	0.5057 ± 0.0058
313.45 K, 101.33 kPa, x2 = 0.83	0.5068 ± 0.0058
318.15 K, 101.33 kPa, x2 = 0.1	0.531 ± 0.015
318.15 K, 101.33 kPa, x2 = 0.2	0.517 ± 0.015
318.15 K, 101.33 kPa, x2 = 0.402	0.5 ± 0.014
318.15 K, 101.33 kPa, x2 = 0.6	0.484 ± 0.014
318.15 K, 101.33 kPa, x2 = 0.8	0.471 ± 0.014
318.15 K, 101.33 kPa, x2 = 0.899	0.464 ± 0.014
322.55 K, 101.33 kPa, x2 = 0.719	0.464 ± 0.0054
322.85 K, 101.33 kPa, x2 = 0.83	0.4607 ± 0.0053
322.95 K, 101.33 kPa, x2 = 0.202	0.4648 ± 0.0054
323.05 K, 101.33 kPa, x2 = 0.62	0.4581 ± 0.0053
323.15 K, 100 kPa, x2 = 0.25	0.431 ± 0.013
323.15 K, 100 kPa, x2 = 0.5	0.427 ± 0.013
323.15 K, 100 kPa, x2 = 0.75	0.424 ± 0.013
323.15 K, 101.33 kPa, x1 = 0.1688	0.411 ± 0.004
323.15 K, 101.33 kPa, x1 = 0.4383	0.416 ± 0.004
323.15 K, 101.33 kPa, x1 = 0.5149	0.42 ± 0.004
323.15 K, 101.33 kPa, x1 = 0.6583	0.423 ± 0.0041
323.15 K, 101.33 kPa, x1 = 0.7819	0.424 ± 0.0041

From the CheMixHub viscosity set
